The values that follow come from US12729192B2, “CDK9 inhibitor and use thereof” (PHARMABLOCK SCIENCES (NANJING), INC., priority 2020, dated 2026).

The IC50 is the concentration needed to halve the response being measured. Read a low IC50 as greater potency.

Molecules are shown by their SMILES.

What all share (format): biochemical
Common to all, as to conditions: 10 μM ATP, 2 h at room temperature

For one experiment, the target named is CDK9 (Homo sapiens, UniProt P50750). In words: CDK9 kinase activity inhibition (ADP-Glo). The method, then:
(§1) CDK9 kinase was manufactured by the company or commercially available. CDK1, CDK2 and CDK7 were purchased from Carna Biosciences, Inc. ADP-Glo™ kit was purchased from Promega Corporation. Dithiothreitol (DTT), Tween-20, dimethylsulfoxide (DMSO), bovine serum albumin (BSA) and Tris base were obtained from Sigma at the available highest level of purity.
(§2) General procedures for CDK inhibition determination: The determination was performed in a buffer consisting of 50 μM DTT, 0.1% BSA, 40 mM Tris-HCl pH=7.5 and 20 mM MgCl2. The compound dissolved in DMSO and CDK enzymes were diluted with the buffer. 1 μL of the compound solution in 5% DMSO and 2 μL of the CDK enzyme solution were added to a white low-volume 384-well microtiter plate and incubated for 20 min at room temperature. Ultra pure ATP and the substrate polypeptide (purchased from GenScript Biotech Corporation) were diluted together into the buffer and added to a mixed solution of the compound and the enzyme, 2 μL per well. They were incubated for 2 h at room temperature.
(§3) After the reaction was completed, 5 μL of ADP-Glo™ reagent was added to each well and incubated for 40 min at room temperature, and then 10 μL of test reagent was added to each well and incubated for 30 mi at room temperature. Chemical luminescence values were measured by using a Tecan (Männedorf, Switzerland) multifunctional plate reader Spark for plate reading. The IC50 value of the inhibitor was obtained by fitting the chemical luminescence intensity ratio in the S-shaped dosage reaction curve using Prism 7 (La Jolla, 15 CA) relative to the concentration of the inhibitor.
(ADP-Glo first removes unused ATP, then detects ADP through luciferase.)

In a further experiment the target is T1, CDK7 (Homo sapiens, UniProt P50613).
T1 construct: purchased Carna Biosciences, Inc
T1 sequence (P50613 whole entry): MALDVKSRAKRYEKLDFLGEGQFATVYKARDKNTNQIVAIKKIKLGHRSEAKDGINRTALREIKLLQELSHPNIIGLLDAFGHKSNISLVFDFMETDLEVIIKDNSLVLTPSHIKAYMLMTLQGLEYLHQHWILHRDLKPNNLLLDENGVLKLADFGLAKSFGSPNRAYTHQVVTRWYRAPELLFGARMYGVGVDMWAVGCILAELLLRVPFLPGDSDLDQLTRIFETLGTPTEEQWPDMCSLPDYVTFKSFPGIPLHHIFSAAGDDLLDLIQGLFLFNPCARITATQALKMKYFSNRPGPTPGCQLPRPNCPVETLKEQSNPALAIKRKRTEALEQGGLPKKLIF
T1 sequence (P51946 whole entry partner): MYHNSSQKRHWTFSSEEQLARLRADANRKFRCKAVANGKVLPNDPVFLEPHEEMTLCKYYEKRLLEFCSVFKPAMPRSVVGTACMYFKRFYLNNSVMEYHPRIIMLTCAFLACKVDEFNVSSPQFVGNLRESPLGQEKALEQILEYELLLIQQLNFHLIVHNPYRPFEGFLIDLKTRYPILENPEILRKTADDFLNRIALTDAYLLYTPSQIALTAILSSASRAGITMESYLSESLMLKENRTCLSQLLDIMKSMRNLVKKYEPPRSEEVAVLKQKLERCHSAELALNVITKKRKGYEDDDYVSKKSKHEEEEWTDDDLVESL
T1 sequence (P51948 whole entry partner): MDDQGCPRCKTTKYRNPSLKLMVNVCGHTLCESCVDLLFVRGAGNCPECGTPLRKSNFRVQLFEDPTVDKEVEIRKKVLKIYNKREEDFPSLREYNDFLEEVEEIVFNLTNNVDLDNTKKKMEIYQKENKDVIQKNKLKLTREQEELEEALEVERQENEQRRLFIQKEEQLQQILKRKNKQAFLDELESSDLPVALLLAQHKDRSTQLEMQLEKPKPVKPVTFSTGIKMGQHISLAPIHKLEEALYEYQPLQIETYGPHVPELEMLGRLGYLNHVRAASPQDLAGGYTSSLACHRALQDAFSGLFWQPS
In words: CDK7 kinase activity inhibition (ADP-Glo). On the procedure: as §1, §2, §3

The target in the next experiment is T2, CDK2 (Homo sapiens, UniProt P24941).
T2 construct: purchased Carna Biosciences, Inc
In words: CDK2 kinase activity inhibition (ADP-Glo). On the procedure:
as §1, §2, §3

Chain of CDK9 (P50750 whole entry): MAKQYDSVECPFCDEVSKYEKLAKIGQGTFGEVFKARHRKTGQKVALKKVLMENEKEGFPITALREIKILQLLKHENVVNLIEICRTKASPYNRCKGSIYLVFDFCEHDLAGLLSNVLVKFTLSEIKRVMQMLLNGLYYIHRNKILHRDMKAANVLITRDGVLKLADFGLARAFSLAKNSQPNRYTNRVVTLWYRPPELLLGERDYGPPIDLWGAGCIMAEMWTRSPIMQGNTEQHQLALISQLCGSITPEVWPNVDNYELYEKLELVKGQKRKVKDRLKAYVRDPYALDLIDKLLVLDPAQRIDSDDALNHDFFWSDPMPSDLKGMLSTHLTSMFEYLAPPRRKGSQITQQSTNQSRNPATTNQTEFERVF
Chain of CDK9 (O60563 whole entry partner): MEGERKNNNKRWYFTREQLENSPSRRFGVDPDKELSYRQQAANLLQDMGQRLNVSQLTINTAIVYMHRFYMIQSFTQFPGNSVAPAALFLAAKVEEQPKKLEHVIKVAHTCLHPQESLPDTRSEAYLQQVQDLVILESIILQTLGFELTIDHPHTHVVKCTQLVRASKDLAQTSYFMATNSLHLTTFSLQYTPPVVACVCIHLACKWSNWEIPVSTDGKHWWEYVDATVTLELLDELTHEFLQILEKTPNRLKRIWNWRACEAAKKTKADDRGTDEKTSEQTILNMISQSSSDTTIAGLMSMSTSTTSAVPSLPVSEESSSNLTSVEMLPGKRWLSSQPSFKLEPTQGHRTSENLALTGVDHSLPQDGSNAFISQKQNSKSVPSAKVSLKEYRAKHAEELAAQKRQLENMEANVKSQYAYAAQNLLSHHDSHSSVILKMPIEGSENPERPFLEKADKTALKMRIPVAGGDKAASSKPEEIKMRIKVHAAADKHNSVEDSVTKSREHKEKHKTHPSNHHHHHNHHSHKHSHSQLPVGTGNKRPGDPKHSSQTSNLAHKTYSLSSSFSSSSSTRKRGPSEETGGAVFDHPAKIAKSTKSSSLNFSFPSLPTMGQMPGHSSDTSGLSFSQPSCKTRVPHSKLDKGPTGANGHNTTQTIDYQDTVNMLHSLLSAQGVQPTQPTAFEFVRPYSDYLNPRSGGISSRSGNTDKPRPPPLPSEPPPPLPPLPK

Consider `CC(=O)NC[C@H]1CCC(F)(F)CN1C(=O)c1nc(Nc2cc3[nH]ccc3cn2)ccc1C` [Compound 12, (R)—N-((1-(6-((1H-pyrrolo[3,2-c]pyridin-6-yl)amino)-3-methylpyridine-2-carbonyl)-5,5-difluoropiperidin-2-yl)methyl)acetamide], for which the results for the IC50 at CDK9, against CDK7 and on CDK2 were 163 nM, > 10000 nM and > 10000 nM, respectively.
As to `CC(=O)NC[C@H]1CCC(F)(F)CN1C(=O)c1nc(Nc2cc(C(C)(C)C)sn2)ccc1C` [Compound 13, (R)—N-((1-(6-((5-(t-butyl)isothiazol-3-yl)amino)-3-methylpyridine-2-carbonyl)-5,5-difluoropiperidin-2-yl)methyl)acetamide], the values for the IC50 at CDK9, against CDK7 and on CDK2 were 64 nM, > 10000 nM and 704 nM, respectively.
`CC(=O)NC[C@H]1CCC(F)(F)CN1C(=O)c1nc(Nc2cc(-c3cnn4c3CCC4)ccn2)ccc1C` [Compound 18, (R)—N-((1-(6-((4-(5,6-dihydro-4H-pyrrolo[1,2-b]pyrazol-3-yl)pyridin-2-yl)amino)-3-methylpyridine-2-carbonyl)-5,5-difluoropiperidin-2-yl)methyl)acetamide]: the results for the IC50 on CDK9 and against CDK2 were 33.6 nM and 3310 nM, respectively.
For `CC(=O)NC[C@H]1CCC(F)(F)CN1C(=O)c1nc(Nc2cc(C3CCCC3)ccn2)ccc1C` [Compound 20, (R)—N-((1-(6-((4-cyclopentylpyridin-2-yl)amino)-3-methylpyridine-2-carbonyl)-5,5-difluoropiperidin-2-yl)methyl)acetamide] the same measures were 44.1 nM and 1230 nM.
Turning to `CC(=O)NC[C@H]1CCC(F)(F)CN1C(=O)c1nc(Nc2cc(N3CCCC3)ccn2)ccc1C` [Compound 21, (R)—N-((5,5-difluoro-1-(3-methyl-6-((4-(pyrrolidin-1-yl)pyridin-2-yl)amino)pyridine-2-carbonyl)piperidin-2-yl)methyl)acetamide], the IC50 on CDK9 was 182 nM; against CDK2, > 10000 nM.
The corresponding values for `CC(=O)NC[C@H]1CCC(F)(F)CN1C(=O)c1nc(Nc2ncccn2)ccc1C` [Compound 23, (R)—N-((5,5-difluoro-1-(3-methyl-6-(pyrimidin-2-ylamino)pyridine-2-carbonyl)piperidin-2-yl)methyl)acetamide] are 4620 nM and > 10000 nM.
For `CC(=O)NC[C@H]1CCC(F)(F)CN1C(=O)c1nc(Nc2ccncn2)ccc1C` [Compound 25, (R)—N-((5,5-difluoro-1-(3-methyl-6-(pyrimidin-4-ylamino)pyridine-2-carbonyl)piperidin-2-yl)methyl)acetamide] the same measures were 218 nM and > 10000 nM.
For `CC(=O)NC[C@H]1CCC(F)(F)CN1C(=O)c1nc(Nc2cnccn2)ccc1C` [Compound 26, (R)—N-((5,5-difluoro-1-(3-methyl-6-(pyrazin-2-ylamino)pyridine-2-carbonyl)piperidin-2-yl)methyl)acetamide] the same measures were 17.8 nM and 3610 nM.
With `CC(=O)NC[C@H]1CCC(F)(F)CN1C(=O)c1nc(Nc2ncccc2OC(F)(F)F)ccc1C` [Compound 29, (R)—N-((5,5-difluoro-1-(3-methyl-6-((3-(trifluoromethoxy)pyridin-2-yl)amino)pyridine-2-carbonyl)piperidin-2-yl)methyl)acetamide], the IC50 is 5710 nM against CDK9 and > 10000 nM on CDK2.
Regarding `CCOc1ccnc(Nc2ccc(C)c(C(=O)N3CC(F)(F)CC[C@@H]3CN)n2)c1` [Compound 37, (R)-(2-(aminomethyl)-5,5-difluoropiperidin-1-yl)(6-((4-ethoxypyridin-2-yl)amino)-3-methylpyridin-2-yl)methanone], the values for the IC50 at CDK9 and against CDK2 were 26.6 nM and 3560 nM, respectively.
On to `Cc1ccc(Nc2cc(OC(F)(F)F)ccn2)nc1C(=O)N1CCCC(F)(F)CC1` [Compound 38, (4,4-Difluoroazepin-1-yl)(3-methyl-6-((4-(trifluoromethoxy)pyridin-2-yl)amino)pyridin-2-yl)methanone], for which the IC50 against CDK9 was 267 nM; on CDK2 it was 447 nM.
The corresponding values for `CC(=O)N[C@@H]1CN(C(=O)c2nc(Nc3cc(OC(F)(F)F)ccn3)ccc2C)CC(F)(F)C1` [Compound 42, (S)—N-(5,5-difluoro-1-(3-methyl-6-((4-(trifluoromethoxy)pyridin-2-yl)amino)pyridine-2-carbonyl)piperidin-3-yl)acetamide] are 34.8 nM and 361 nM.
The corresponding values for `CC(=O)N[C@H]1CN(C(=O)c2nc(Nc3cc(OC(F)(F)F)ccn3)ccc2C)CC(F)(F)C1` [Compound 43, (R)—N-(5,5-difluoro-1-(3-methyl-6-((4-(trifluoromethoxy)pyridin-2-yl)amino)pyridine-2-carbonyl)piperidin-3-yl)acetamide] are 167 nM and > 10000 nM.
`CC(=O)NCC1CCC(F)(F)CN1C(=O)c1nc(Nc2cc(OC(F)(F)F)ccn2)ccc1C` (centres unmarked) [Compound 44, N-((5,5-difluoro-1-(3-methyl-6-((4-(trifluoromethoxy)pyridin-2-yl)amino)pyridine-2-carbonyl)piperidin-2-yl)methyl)acetamide]: the IC50 was 23 nM against CDK9 and 679 nM on CDK2.
For `CC(=O)NC[C@H]1CCCCN1C(=O)c1nc(Nc2cc(OC(F)(F)F)ccn2)ccc1C` [Compound 45, (R)—N-((1-(3-methyl-6-((4-(trifluoromethoxy)pyridin-2-yl)amino)pyridine-2-carbonyl)piperidin-2-yl)methyl)acetamide] the same measures were 19.9 nM and 884 nM.
For `CCNC(=O)C1CCC(F)(F)CN1C(=O)c1nc(Nc2cc(OC(F)(F)F)ccn2)ccc1C` (centres unmarked) [Compound 49, N-ethyl-5,5-difluoro-1-(3-methyl-6-((4-(trifluoromethoxy)pyridin-2-yl)amino)pyridine-2-carbonyl)piperidine-2-carboxamide] the same measures were 107 nM and 3210 nM.
Regarding `CC(=O)N[C@@H]1C[C@H](NC(=O)c2nc(Nc3cc(OC(F)(F)F)ccn3)ccc2C)CC(F)(F)C1` [Compound 50, N-((1S,5R)-5-acetamido-3,3-difluorocyclohexyl)-3-methyl-6-((4-4-trifluoromethoxypyridin-2-yl)amino)pyridine-2-carbonylamide], the IC50 is 573 nM on CDK9 and > 10000 nM against CDK2.
For `CC(=O)N(C)C[C@H]1CCC(F)(F)CN1C(=O)c1nc(Nc2cc(OC(F)(F)F)ccn2)ccc1C` [Compound 52, (R)—N-((5,5-difluoro-1-(3-methyl-6-((4-(trifluoromethoxy)pyridin-2-yl)amino)pyridine-2-carbonyl)piperidin-2-yl)methyl)-N-methylacetamide], the values for the IC50 against CDK9 and on CDK2 were 14.6 nM and 658 nM, respectively.
For `CNC(=O)c1ccnc(Nc2ccc(C)c(C(=O)N3CC(F)(F)CC[C@@H]3CNC(C)=O)n2)c1` [Compound 55, (R)-2-((6-(2-(acetamidomethyl)-5,5-difluoropiperidine-1-carbonyl)-5-methylpyridin-2-yl)amino)-N-methyl isonicotinamide] the same measures were 28.3 nM and > 10000 nM.
Regarding `CC(=O)NC[C@H]1CCC(F)(F)CN1S(=O)(=O)c1cc(Nc2cc(OC(F)(F)F)ccn2)ccc1C` [Compound 58, (R)—N-((5,5-difluoro-1-((2-methyl-5-((4-(trifluoromethoxy)pyridin-2-yl)amino)phenyl)sulfonyl)piperidin-2-yl)methyl)acetamide], the half-inhibitory concentration (IC50) against CDK9 and on CDK2 was > 10000 nM throughout.
Consider `CC(=O)NC[C@H]1CCC(F)(F)CN1Cc1nc(Nc2cc(OC(F)(F)F)ccn2)ccc1C` [Compound 62, (R)—N-((5,5-difluoro-1-((3-methyl-6-((4-(trifluoromethoxy)pyridin-2-yl)amino)pyridin-2-yl)methyl)piperidin-2-yl)methyl)acetamide], for which the concentration for half-maximal inhibition (IC50) at CDK9 is 531 nM; against CDK2 it was > 10000 nM.
As for `CC(C)(C)OC(=O)NC[C@H]1CCC(F)(F)CN1C(=O)c1nc(Nc2cc(OC(F)(F)F)ccn2)ccc1F` [Compound 66], the IC50 against CDK9 amounted to 647 nM; on CDK2, 1260 nM.
With `CC(=O)NC[C@H]1CCC(F)(F)CN1C(=O)c1cc(Nc2cc(OC(F)(F)F)ccn2)ncc1C` [Compound 72, (R)—N-((5,5-difluoro-1-(5-methyl-2-((4-(trifluoromethoxy)pyridin-2-yl)amino)isonicotinoyl)piperidin-2-yl)methyl)acetamide], the IC50 on CDK9 was 1310 nM; against CDK2 it was > 10000 nM.
The corresponding values for `CC(=O)NC[C@H]1CCC(F)(F)CN1C(=O)c1nc(Nc2cc(OC(F)(F)F)ccn2)ncc1C` [Compound 76, (R)—N-((5,5-difluoro-1-(5-methyl-2-((4-(trifluoromethoxy)pyridin-2-yl)amino)pyrimidine-4-carbonyl)piperidin-2-yl)methyl)acetamide] are 18.4 nM and 5780 nM.
